# Test results from patent US10167276B2, “Compounds and methods for inhibiting JAK” (Dizal (Jiangsu) Pharmaceutical Co., Ltd., priority 2015, dated 2019).
# Test system: STAT3 phosphorylation in NCI-H1975 cells
# Assay: Cellular pSTAT3 assay in NCI-H1975 cells
# Type: cell-based
# Conditions: Homo sapiens, 2 hours with compound
# Method: NCI-H1975 cells were plated onto Costar #3701 96 or 384 well tissue-culture treated plates at 5,000 cells/well in 30 uL medium (RPMI, 10% FBS, supplemented with L-glutamine) and incubated overnight at 37° C. in 5% CO2. Phospho STAT3 signal was quantitated utilizing Cell Signaling Technology #7146B Pathscan […] STAT3 antibody pair kit, following manufacturer's instructions.
# Cells were dosed with compound and incubated at 37° C. in 5% CO2 for 2 hours, after which medium and compound were aspirated and cells lysed with 35 uL cold 1×Cell Signaling Lysis buffer and chilled at 4° C. for 1-2 hours. Lysate was incubated on STAT3 capture plates at 4° C. overnight, washed 3× with Tris-Buffered Saline with 0.05% Tween® 20 (TBST), then […] STAT3 detection antibody was applied for 2 hours. Following washing with TBST (3×), HRP-secondary antibody was applied for 2 hours. After additional washing, signal was detected using TMB and Stop solution and read at 450 nm using Tecan Infinite M100.
row,IC50 [nM],Structure (SMILES)
1,1280,"COC[C@@H](C(=O)Nc1cccc2c(-c3nc(Nc4cn(C)nc4OC)ncc3C)c[nH]c12)N1CCN(C)CC1 [Example 46, (2S)-3-methoxy-N-(3-{2-[(3-methoxy-1-methyl-1H-pyrazol-4-yl)amino]-5-methylpyrimidin-4-yl}-1H-indol-7-yl)-2-(4-methylpiperazin-1-yl)propanamide]"
2,126,"Cc1nn(C)cc1Nc1ncc(F)c(-c2c[nH]c3c(NC(=O)[C@@H](C)N4CCN(C)CC4)cccc23)n1 [Example 56, (2R)-N-(3-{2-[(1,3-dimethyl-1H-pyrazol-4-yl)amino]-5-fluoropyrimidin-4-yl}-1H-indol-7-yl)-2-(4-methylpiperaizn-1-yl)propanamide]"
3,100,"CCN1CCN([C@H](C)C(=O)Nc2cccc3c(-c4ccnc(Nc5cn(C)nc5OC)n4)c[nH]c23)CC1 [Example 28, (2R)-2-(4-ethylpiperazin-1-yl)-N-(3-{2-[(3-methoxy-1-methyl-1H-pyrazol-4-yl)amino]pyrimidin-4-yl}-1H-indol-7-yl)propanamide]"
4,172,"Cc1cnc(Nc2cn(C)nc2C)nc1-c1c[nH]c2c(NC(=O)[C@H](C)N3CCN(C)CC3)cccc12 [Example 42, (2S)-N-(3-{2-[(1,3-dimethyl-1H-pyrazol-4-yl)amino]-5-methylpyrimidin-4-yl}-1H-indol-7-yl)-2-(4-methylpiperazin-1-yl)propanamide]"
5,302,"COCCN1CCN([C@H](C)C(=O)Nc2cccc3c(-c4nc(Nc5cn(C)nc5OC)ncc4F)c[nH]c23)CC1 [Example 3, (2R)-N-(3-{5-fluoro-[(3-methoxy-1-methyl-1H-pyrazol-4-yl)amino]pyrimidin-4-yl}-1H-indol-7-yl)-2-[4-(2-methoxyethyl)piperazin-1-yl]propanamide]"
6,175,"COc1nn(C)cc1Nc1ncc(C)c(-c2c[nH]c3c(NC(=O)[C@@H](C)N4CCN(C)[C@H](C)C4)cccc23)n1 [Example 18, (2R)-2-[(3R)-3,4-dimethylpiperazin-1-yl]-N-(3-{2-[(3-methoxy-1-methyl-1H-pyrazol-4-yl)amino]-5-methylpyrimidin-4-yl}-1H-indol-7-yl)propanamide]"
7,57.9,"COc1nn(C)cc1Nc1ncc(Cl)c(-c2c[nH]c3c(NC(=O)[C@@H](C)N4CCN(C)CC4)cccc23)n1 [Example 36, (2R)-N-(3-{5-chloro-2-[(3-methoxy-1-methyl-1H-pyrazol-4-yl)amino]pyrimidin-4-yl}-1H-indol-7-yl)-2-(4-methylpiperazin-1-yl)propanamide]"
8,56.6,"COC[C@H](C(=O)Nc1cccc2c(-c3nc(Nc4cn(C)nc4C)ncc3F)c[nH]c12)N1CCN(C)CC1 [Example 53, (2R)-N-(3-{2-[(1,3-dimethyl-1H-pyrazol-4-yl)amino]-5-fluoropyrimidin-4-yl}-1H-indol-7-yl)-3-methoxy-2-(4-methylpiperazin-1-yl)propanamide]"
9,111,"CC[C@H](C(=O)Nc1cccc2c(-c3nc(Nc4cn(C)nc4OC)ncc3F)c[nH]c12)N1CCN(C)CC1 [Example 51, (2R)-N-(3-{5-fluoro-2-[(3-methoxy-1-methyl-1H-pyrazol-4-yl)amino]pyrimidin-4-yl}-1H-indol-7-yl)-2-(4-methylpiperazin-1-yl)butanamide]"
10,155,"Cc1nn(C)cc1Nc1nccc(-c2c[nH]c3c(NC(=O)[C@@H](C)N4CCN(C)CC4)cccc23)n1 [Example 57, (2R)-N-(3-{2-[(1,3-dimethyl-1H-pyrazol-4-yl)amino]pyrimidin-4-yl}-1H-indol-7-yl)-2-(4-methylpiperaizn-1-yl)propanamide]"
11,94.2,"COc1nn(C)cc1Nc1ncc(Br)c(-c2c[nH]c3c(NC(=O)[C@@H](C)N4CCN(C)CC4)cccc23)n1 [Example 37, (2R)-N-(3-{5-bromo-2-[(3-methoxy-1-methyl-1H-pyrazol-4-yl)amino]pyrimidin-4-yl}-1H-indol-7-yl)-2-(4-methylpiperazin-1-yl)propanamide]"
12,> 3000,"COc1nn(C)cc1Nc1ncc(F)c(-c2c[nH]c3c(NC(=O)[C@H](C)N4CCN(C)C[C@@H]4C)cccc23)n1 [Example 7b, (2S)-2-[(3S)-2,4-dimethylpiperazin-1-yl]-N-(3-{5-fluoro-2-[(3-methoxy-1-methyl-1H-pyrazol-4-yl)amino]pyrimidin-4-yl}-1H-indol-7-yl)propanamide]"
13,115,COc1nn(C)cc1Nc1ncc(F)c(-c2c[nH]c3c(NC(=O)[C@@H](C)N4CCN(C)CC4)cccc23)n1 [Example 25]
14,370,"CCOc1nn(C)cc1Nc1ncc(C)c(-c2c[nH]c3c(NC(=O)[C@@H](C)N4CCN(C)[C@H](C)C4)cccc23)n1 [Example 24, (2R)-2-[(3R)-3,4-dimethylpiperazin-1-yl]-N-(3-{2-[(3-ethoxy-1-methyl-1H-pyrazol-4-yl)amino]-5-methylpyrimidin-4-yl}-1H-indol-7-yl)propanamide]"
15,106,"CCn1cc(Nc2ncc(C)c(-c3c[nH]c4c(NC(=O)[C@@H](C)N5CCN(C)CC5)cccc34)n2)c(OC)n1 [Example 58, (2R)-N-(3-{2-[(1-ethyl-3-methoxy-1H-pyrazol-4-yl)amino]-5-methylpyrimidin-4-yl}-1H-indol-7-yl)-2-(4-methylpiperazin-1-yl)propanamide]"
16,2280,"CCOc1nn(C)cc1Nc1ncc(F)c(-c2c[nH]c3c(NC(=O)[C@H](C)N4CCN(C)[C@@H](C)C4)cccc23)n1 [Example 11b, (2S)-2-[(3S)-3,4-dimethylpiperazin-1-yl]-N-(3-{2-[(3-ethoxy-1-methyl-1H-pyrazol-4-yl)amino]-5-fluoropyrimidin-4-yl}-1H-indol-7-yl)propanamide]"
17,609,"COCCN1CCN([C@H](C)C(=O)Nc2cccc3c(-c4ccnc(Nc5cn(C)nc5OC)n4)c[nH]c23)CC1 [Example 27, (2R)-2-[4-(2-methoxyethyl)piperazin-1-yl]-N-(3-{2-[(3-methoxy-1-methyl-1H-pyrazol-4-yl)amino]pyrimidin-4-yl}-1H-indol-7-yl)propanamide]"
18,191,"CCOc1nn(C)cc1Nc1ncc(F)c(-c2c[nH]c3c(NC(=O)[C@@H](C)N4CCN(C)CC4)cccc23)n1 [Example 39, (2R)-N-(3-{2-[(3-ethoxy-1-methyl-1H-pyrazol-4-yl)amino]-5-fluoropyrimidin-4-yl}-1H-indol-7-yl)-2-(4-methylpiperazin-1-yl)propanamide]"
19,256,"COc1nn(C)cc1Nc1nccc(-c2c[nH]c3c(NC(=O)[C@@H](C)N4CCN(C)[C@@H](C)C4)cccc23)n1 [Example 26, (2R)-2-[(3S)-3,4-dimethylpiperazin-1-yl]-N-(3-{2-[(3-methoxy-1-methyl-1H-pyrazol-4-yl)amino]pyrimidin-4-yl}-1H-indol-7-yl)propanamide]"
20,75.1,"CC[C@H](C(=O)Nc1cccc2c(-c3nc(Nc4cn(C)nc4C)ncc3F)c[nH]c12)N1CCN(C)CC1 [Example 49, (2R)-N-(3-{2-[(1,3-dimethyl-1H-pyrazol-4-yl)amino]-5-fluoropyrimidin-4-yl}-1H-indol-7-yl)-2-(4-methylpiperazin-1-yl)butanamide]"
21,191,"CCOc1nn(C)cc1Nc1ncc(F)c(-c2c[nH]c3c(NC(=O)[C@@H](C)N4CCN(CC)CC4)cccc23)n1 [Example 8, (2R)-N-(3-{2[(3-ethoxy-1-methyl-1H-pyrazol-4-yl)amino]-5-fluoropyrimidin-4-yl}-1H-indol-7-yl)-2-(4-ethylpiperazin-1-yl)propanamide]"
22,229,"COCCN1CCN([C@H](C)C(=O)Nc2cccc3c(-c4nc(Nc5cn(C)nc5OC)ncc4C)c[nH]c23)CC1 [Example 17, (2R)-2-[4-(2-methoxyethyl)piperazin-1-yl]-N-(3-{2-[(3-methoxy-1-methyl-1H-pyrazol-4-yl)amino]-5-methylpyrimidin-4-yl}-1H-indol-7-yl)propanamide]"
23,111,"COc1nn(C)cc1Nc1ncc(F)c(-c2c[nH]c3c(NC(=O)[C@@H](C)N4CCN(C)C[C@H]4C)cccc23)n1 [Example 6, (2R)-2-[(2R)-2,4-dimethylpiperazin-1-yl]-N-(3-{5-fluoro-2-[(3-methoxy-1-methyl-1H-pyrazol-4-yl)amino]pyrimidin-4-yl}-1H-indol-7-yl)propanamide]"
24,227,"COc1nn(C)cc1Nc1ncc(F)c(-c2c[nH]c3c(NC(=O)[C@@H](C)N4CCN(C)[C@H](C)C4)cccc23)n1 [Example 2, (2R)-2-[(3R)-3,4-dimethylpiperazin-1-yl]-N-(3-{5-fluoro-2-[(3-methoxy-1-methyl-1H-pyrazol-4-yl)amino]pyrimidin-4-yl}-1H-indol-7-yl)propanamide]"
25,92.3,"Cc1cnc(Nc2cn(C)nc2C)nc1-c1c[nH]c2c(NC(=O)[C@@H](C)N3CCN(C)CC3)cccc12 [Example 41, (2R)-N-(3-{2-[(1,3-dimethyl-1H-pyrazol-4-yl)amino]-5-methylpyrimidin-4-yl}-1H-indol-7-yl)-2-(4-methylpiperazin-1-yl)propanamide]"
26,227,"COc1nn(C)cc1Nc1nccc(-c2c[nH]c3c(NC(=O)[C@@H](C)N4CCN(C)C[C@H]4C)cccc23)n1 [Example 29, (2R)-2-[(2R)-2,4-dimethylpiperazin-1-yl]-N-(3-{2-[(3-methoxy-1-methyl-1H-pyrazol-4-yl)amino]pyrimidin-4-yl}-1H-indol-7-yl)propanamide]"
27,97.3,"COC[C@H](C(=O)Nc1cccc2c(-c3ccnc(Nc4cn(C)nc4OC)n3)c[nH]c12)N1CCN(C)CC1 [Example 60, (2R)-3-Methoxy-N-(3-{2-[(3-methoxy-1-methyl-1H-pyrazol-4-yl)amino]pyrimidin-4-yl}-1H-indol-7-yl)-2-(4-methylpiperazin-1-yl)propanamide]"
